Measurements: ChEMBL document CHEMBL4811258, “Potent Antimalarials with Development Potential Identified by Structure-Guided Computational Optimization of a Pyrrole-Based Dihydroorotate Dehydrogenase Inhibitor Series” (J Med Chem, 2021)
pEC50, pIC50: −log10 of the molar value. Values after ≈ are worked out from the molar mass of the structure shown.

Legend:
[1] = target: Dihydroorotate dehydrogenase (quinone), mitochondrial (Rattus norvegicus, UniProt Q63707); assay: Inhibition of rat DHODH up to 100 uM; details: up to 100 µM
[2] = Apparent half life in Sprague-Dawley rat at 31 mg/kg, po measured up to 24 hrs; type: ADME, organism-based; details: in vivo, read-out: t1/2(app) (converted)
in vitro [3] = details: rat, blood and plasma
[4] = Inhibition of dog DHODH up to 100 uM; set-up: species or system Canis lupus familiaris; details: up to 100 µM
Albumin = Albumin (Bos taurus, UniProt P02769); assay: Binding affinity to bovine serum albumin by Albumax assay; type: ADME; details: cattle, isolated protein
[5] = Unbound intrinsic clearance in mouse liver microsomes at 1 uM measured up to 4 hrs by LC-MS analysis; type: ADME, Microsome
[6] = mouse, plasma
[7] = AUC (0 to infinity) in Sprague-Dawley rat at 31 mg/kg, po measured up to 24 hrs; type: ADME, organism-based; set-up: route oral, dose 31 mg/kg, time <=24; details: in vivo
[8] = target: Dihydroorotate dehydrogenase (quinone), mitochondrial (Mus musculus, UniProt O35435); assay: Inhibition of mouse DHODH up to 100 uM; details: up to 100 µM
[9] = buffer, pH 1.6, 1 h
[10] = Cmax in Swiss mouse at 20 mg/kg, po measured up to 24 hrs by LC-MS analysis; type: ADME, organism-based; set-up: route oral, dose 20 mg/kg, time <=24; details: in vivo
Cytochrome P450 2C8 = target: T1, Cytochrome P450 2C8 (Homo sapiens, UniProt P10632)
T1 sequence (P10632 whole entry): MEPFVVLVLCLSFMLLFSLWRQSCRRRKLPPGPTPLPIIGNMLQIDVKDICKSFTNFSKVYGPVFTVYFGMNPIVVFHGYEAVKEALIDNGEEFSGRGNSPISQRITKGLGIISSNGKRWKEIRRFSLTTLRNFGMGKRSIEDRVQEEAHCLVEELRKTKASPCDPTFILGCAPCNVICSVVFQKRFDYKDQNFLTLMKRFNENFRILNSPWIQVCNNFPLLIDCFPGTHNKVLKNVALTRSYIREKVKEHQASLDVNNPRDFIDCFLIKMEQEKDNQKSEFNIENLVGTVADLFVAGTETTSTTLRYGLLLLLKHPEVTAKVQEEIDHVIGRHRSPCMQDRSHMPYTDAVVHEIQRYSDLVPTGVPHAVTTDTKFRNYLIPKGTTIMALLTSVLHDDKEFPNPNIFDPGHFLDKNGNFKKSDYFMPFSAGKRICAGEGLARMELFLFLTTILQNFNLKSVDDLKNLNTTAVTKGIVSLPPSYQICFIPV

[11] = rat, plasma
in vitro [12] = details: mouse, blood and plasma
[13] = AUC (0 to infinity) in Swiss mouse at 20 mg/kg, po measured up to 24 hrs by LC-MS analysis; type: ADME, organism-based; set-up: route oral, dose 20 mg/kg, time <=24; details: in vivo
[14] = Tmax in Swiss mouse at 20 mg/kg, po measured up to 24 hrs by LC-MS analysis; type: ADME, organism-based; details: in vivo
[15] = Binding affinity to microsome (unknown origin); type: ADME; details: microsomes
[16] = simulated gi fluid, pH 6.5, 5 h
Plasmodium falciparum [17] = assay: Antiplasmodial activity against asexual blood stage chloroquine and pyrimethamine-resistant Plasmodium falciparum Dd2 infected in human erythrocytes assessed as parasite killing; type: functional, organism-based
Cytochrome P450 3A4 = Cytochrome P450 3A4 (Homo sapiens, UniProt P08684)
[18] = Cmax in Sprague-Dawley rat at 31 mg/kg, po measured up to 24 hrs; type: ADME, organism-based; set-up: route oral, dose 31 mg/kg, time <=24; details: in vivo
[19] = human, plasma
[20] = Half life in Swiss mouse at 20 mg/kg, po measured up to 24 hrs by LC-MS analysis; type: ADME, organism-based; details: in vivo
[21] = Inhibition of Plasmodium falciparum DHODH expressed in Escherichia coli BL21-DE3 using L-dihydroorotate as substrate by steady-state DCIP method
[22] = Oral bioavailability in Sprague-Dawley rat at 31 mg/kg measured up to 24 hrs; type: ADME, organism-based; details: in vivo
[23] = Plasma clearance in Sprague-Dawley rat at […], iv measured up to 24 hrs; type: ADME, organism-based
[24] = Tmax in Sprague-Dawley rat at 31 mg/kg, po measured up to 24 hrs; type: ADME, organism-based; details: in vivo
[25] = Inhibition of Plasmodium vivax DHODH expressed in Escherichia coli BL21-DE3 using L-dihydroorotate as substrate by steady-state DCIP method
[26] = Intrinsic clearance in mouse liver microsomes at 1 uM measured up to 4 hrs by LC-MS analysis; type: ADME, Microsome
[27] = simulated gi fluid, pH 5.8, 5 h
HepG2 = assay: Cytotoxicity against human HepG2 cells; type: cell-based
Plasmodium falciparum [28] = tested on: Plasmodium falciparum
[29] = buffer, pH 7.4, 5 h
[30] = Volume of distribution at steady state in Sprague-Dawley rat at […], iv measured up to 24 hrs; type: ADME, organism-based; details: in vivo, read-out: Vdss
L1210 = assay: Cytotoxicity against mouse L1210 cells; type: cell-based
Cytochrome P450 2B6 = target: T2, Cytochrome P450 2B6 (Homo sapiens, UniProt P20813)
T2 sequence (P20813 whole entry): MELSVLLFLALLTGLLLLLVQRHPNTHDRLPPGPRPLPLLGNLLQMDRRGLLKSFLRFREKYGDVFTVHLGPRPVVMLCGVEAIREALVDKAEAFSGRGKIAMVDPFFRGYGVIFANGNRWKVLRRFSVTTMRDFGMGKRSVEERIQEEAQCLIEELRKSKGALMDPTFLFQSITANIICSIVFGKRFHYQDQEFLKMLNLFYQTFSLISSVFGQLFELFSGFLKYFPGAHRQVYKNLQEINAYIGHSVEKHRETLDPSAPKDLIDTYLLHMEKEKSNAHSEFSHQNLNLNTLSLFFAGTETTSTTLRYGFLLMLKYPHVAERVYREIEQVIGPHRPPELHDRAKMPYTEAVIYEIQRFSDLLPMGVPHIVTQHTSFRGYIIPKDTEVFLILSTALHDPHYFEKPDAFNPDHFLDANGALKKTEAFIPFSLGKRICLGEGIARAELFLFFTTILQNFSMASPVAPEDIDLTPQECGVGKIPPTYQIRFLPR

[31] = Oral bioavailability in Sprague-Dawley rat at 28 mg/kg measured up to 24 hrs; type: ADME, organism-based; details: in vivo
[32] = human, caco-2, pH 7.4
Plasmodium berghei = assay: Antiplasmodial activity against liver stage Plasmodium berghei berghei-ANKA-GFP-Luc-SMCON (Pb-Luc) assessed as parasite killing infected in HepG2-A16-CD8IEGF cells; type: functional, organism-based
[33] = Cmax in Sprague-Dawley rat at 28 mg/kg, po measured up to 24 hrs; type: ADME, organism-based; set-up: route oral, dose 28 mg/kg, time <=24; details: in vivo
[34] = human, caco-2, pH 7.4; remark: listed apart in the source
[35] = Plasma clearance in Swiss mouse at […], iv measured up to 24 hrs by LC-MS analysis; type: ADME, organism-based; details: dose 2.8 mg/kg
[36] = Oral bioavailability in Swiss mouse at 20 mg/kg measured up to 24 hrs by LC-MS analysis; type: ADME, organism-based; details: in vivo
[37] = Volume of distribution at steady state in Swiss mouse at […], iv measured up to 24 hrs by LC-MS analysis; type: ADME, organism-based; details: in vivo, dose 2.8 mg/kg, read-out: Vdss
[38] = Tmax in Sprague-Dawley rat at 28 mg/kg, po measured up to 24 hrs; type: ADME, organism-based; details: in vivo
[39] = AUC (0 to infinity) in Sprague-Dawley rat at 28 mg/kg, po measured up to 24 hrs; type: ADME, organism-based; set-up: route oral, dose 28 mg/kg, time <=24; details: in vivo
[40] = Apparent half life in Sprague-Dawley rat at 28 mg/kg, po measured up to 24 hrs; type: ADME, organism-based; details: in vivo, read-out: t1/2(app) (converted)
Plasmodium falciparum [41] = assay: Antiplasmodial activity against Plasmodium falciparum Dd2 Uganda infected in human erythrocytes assessed as parasite killing using albumax media measured after 72 hrs by SYBR Green assay; type: functional, organism-based; details: Dd2, 72 h
Plasmodium falciparum [42] = assay: Antiplasmodial activity against asexual blood stage Plasmodium falciparum D10 expressing yeast DHODH infected in human erythrocytes assessed as parasite killing in presence of proguanil; type: functional, organism-based
[43] = Tmax in Sprague-Dawley rat at 32 mg/kg, po measured up to 24 hrs; type: ADME, organism-based; details: in vivo
[44] = Oral bioavailability in Sprague-Dawley rat at 32 mg/kg measured up to 24 hrs; type: ADME, organism-based; details: in vivo
[45] = AUC (0 to infinity) in Sprague-Dawley rat at 32 mg/kg, po measured up to 24 hrs; type: ADME, organism-based; set-up: route oral, dose 32 mg/kg, time <=24; details: in vivo
Plasmodium falciparum [46] = assay: Antiplasmodial activity against Plasmodium falciparum Uganda field isolated from patients infected in human erythrocytes assessed as parasite killing using albumax media measured after 72 hrs by SYBR Green assay; type: functional, organism-based
[47] = Cmax in Sprague-Dawley rat at 32 mg/kg, po measured up to 24 hrs; type: ADME, organism-based; set-up: route oral, dose 32 mg/kg, time <=24; details: in vivo
Plasmodium falciparum [48] = assay: Antiplasmodial activity against Plasmodium falciparum 3D7 Uganda infected in human erythrocytes assessed as parasite killing using albumax media measured after 72 hrs by SYBR Green assay; type: functional, organism-based; details: 3D7, 72 h
[49] = Apparent half life in Sprague-Dawley rat at 32 mg/kg, po measured up to 24 hrs; type: ADME, organism-based; details: in vivo, read-out: t1/2(app) (converted)
Plasmodium falciparum [50] = assay: Antiplasmodial activity against asexual blood stage Plasmodium falciparum D10 expressing yeast DHODH infected in human erythrocytes assessed as parasite killing; type: functional, organism-based

Chain of Albumin (P02769 whole entry): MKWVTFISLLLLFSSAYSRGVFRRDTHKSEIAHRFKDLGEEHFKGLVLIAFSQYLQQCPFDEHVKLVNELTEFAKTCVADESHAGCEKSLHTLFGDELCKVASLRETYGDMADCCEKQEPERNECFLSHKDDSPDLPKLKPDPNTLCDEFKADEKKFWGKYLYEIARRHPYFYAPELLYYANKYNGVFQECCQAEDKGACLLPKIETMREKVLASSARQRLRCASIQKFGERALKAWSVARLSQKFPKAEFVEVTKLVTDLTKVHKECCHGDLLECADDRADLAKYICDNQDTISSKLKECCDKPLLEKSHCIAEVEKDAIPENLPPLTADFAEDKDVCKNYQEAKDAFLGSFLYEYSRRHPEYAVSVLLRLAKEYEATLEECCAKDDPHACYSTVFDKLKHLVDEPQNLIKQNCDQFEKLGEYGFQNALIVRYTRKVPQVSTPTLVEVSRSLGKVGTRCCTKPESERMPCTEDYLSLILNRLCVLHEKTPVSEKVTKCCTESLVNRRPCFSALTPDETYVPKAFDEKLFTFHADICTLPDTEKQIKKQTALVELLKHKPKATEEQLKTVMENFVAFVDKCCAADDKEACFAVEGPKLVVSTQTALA
Chain of Dihydroorotate dehydrogenase (quinone), mitochondrial (Rattus norvegicus, UniProt Q63707) (Q63707 whole entry): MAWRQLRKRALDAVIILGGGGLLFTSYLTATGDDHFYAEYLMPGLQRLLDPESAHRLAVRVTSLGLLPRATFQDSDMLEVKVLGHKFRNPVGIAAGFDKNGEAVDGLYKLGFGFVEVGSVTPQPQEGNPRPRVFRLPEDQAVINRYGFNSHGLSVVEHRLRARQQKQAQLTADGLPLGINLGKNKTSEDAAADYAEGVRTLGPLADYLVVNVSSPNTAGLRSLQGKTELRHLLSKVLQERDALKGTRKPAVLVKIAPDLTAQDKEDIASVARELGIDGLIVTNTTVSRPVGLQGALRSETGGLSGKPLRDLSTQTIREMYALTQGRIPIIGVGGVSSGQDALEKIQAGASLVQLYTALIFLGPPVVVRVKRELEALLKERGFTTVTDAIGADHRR
Chain of Dihydroorotate dehydrogenase (quinone), mitochondrial (Mus musculus, UniProt O35435) (O35435 whole entry): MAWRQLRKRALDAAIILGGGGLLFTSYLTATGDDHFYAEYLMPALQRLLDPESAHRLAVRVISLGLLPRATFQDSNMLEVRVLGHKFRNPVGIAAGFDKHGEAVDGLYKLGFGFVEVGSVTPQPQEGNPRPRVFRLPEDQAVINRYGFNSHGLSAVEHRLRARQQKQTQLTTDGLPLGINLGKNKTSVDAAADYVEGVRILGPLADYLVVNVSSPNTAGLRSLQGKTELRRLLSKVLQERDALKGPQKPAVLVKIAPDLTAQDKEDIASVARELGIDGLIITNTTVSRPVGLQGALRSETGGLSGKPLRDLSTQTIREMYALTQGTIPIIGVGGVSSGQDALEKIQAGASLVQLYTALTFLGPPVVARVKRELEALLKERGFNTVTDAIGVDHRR
Chain of Cytochrome P450 3A4 (P08684 whole entry): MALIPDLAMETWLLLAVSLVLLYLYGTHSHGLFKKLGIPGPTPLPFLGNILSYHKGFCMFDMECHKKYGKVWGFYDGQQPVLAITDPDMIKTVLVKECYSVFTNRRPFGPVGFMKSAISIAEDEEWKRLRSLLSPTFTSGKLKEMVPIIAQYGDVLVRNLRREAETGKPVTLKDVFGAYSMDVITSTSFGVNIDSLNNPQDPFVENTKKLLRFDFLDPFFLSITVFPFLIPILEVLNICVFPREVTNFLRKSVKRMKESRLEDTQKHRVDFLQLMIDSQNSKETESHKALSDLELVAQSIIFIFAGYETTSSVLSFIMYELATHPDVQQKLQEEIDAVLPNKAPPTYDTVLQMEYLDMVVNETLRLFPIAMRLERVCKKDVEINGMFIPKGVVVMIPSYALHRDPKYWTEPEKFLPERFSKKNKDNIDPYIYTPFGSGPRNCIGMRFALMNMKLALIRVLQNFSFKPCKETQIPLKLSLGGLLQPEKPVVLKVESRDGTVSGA

Row | SMILES | inhibition (INH) [1] | inhibition (INH) [4] | Activity (Albumin) [%] | CL free [5] [µL/min/mg] | PPB [6] [%] | inhibition (INH) [8] | solubility [9] [µg/mL] | Cmax [10] [µM] | IC50 (Cytochrome P450 2C8) [nM] | PPB [11] [%] | AUC(0-inf) [13] [µM·h] | Tmax [14] [h] | Activity [15] [%] | solubility [16] [µg/mL] | PPB [19] [%] | half-life [20] [h] | pIC50 [25] | Intrinsic clearance [26] [µL/min/mg] | Activity (HepG2) | Activity (L1210) | also measured
1 | Cc1c(Cc2ccc(C(F)(F)F)nc2)c[nH]c1C(=O)NC(C)c1cn[nH]c1 (stereo in doubt; form 1) | Not Active | Not Active | 49.5 | 52 | 92.1 | Not Active | 81 (≈ 215 µM) | 6.4 | 18300 | 91.4 | 65 | 1 | 40.5 | 34 (≈ 90.1 µM) | 84 | 4.4 | 7.37 | 31 | Non-Toxic | Non-Toxic | half-life [2]: 3.4 h; blood plasma ratio (in vitro [3]): 1.3; AUC(0-inf) [7]: 22 µM·h; blood plasma ratio (in vitro [12]): 1.4; pEC50 (Plasmodium falciparum [17]): 8.62; TDI (Cytochrome P450 3A4): Active; Cmax [18]: 2.4 µM; pIC50 [21]: 7.33; bioavailability [22]: 10%; clearance at 24 h ([23]; dose 2.9 mg/kg): 6.2 mL/min/kg; Tmax [24]: 3 h; solubility [27]: 81 µg/mL (≈ 215 µM); pEC50 (Plasmodium falciparum [28]): 8.35; solubility [29]: 23 µg/mL (≈ 60.9 µM); Vd at 24 h ([30]; dose 2.9 mg/kg): 1.7 L/kg; IC50 (Cytochrome P450 2B6): > 20000 nM
2 | Cc1cc(C(C)NC(=O)c2[nH]cc(Cc3ccc(C(F)(F)F)nc3)c2C)no1 (stereo in doubt; form 1) | Not Active | Not Active | 75 | 111 | 92.2 | Not Active | – | 13 | – | 93.7 | 66 | 1 | 43.3 | – | 94.7 | 2.3 | 8.14 | 63 | Non-Toxic | Non-Toxic | bioavailability [31]: 43%; Papp [32]: 57 10^-6 cm/s; pEC50 (Plasmodium berghei): 8.08; Cmax [33]: 16 µM; Papp [34]: 48 10^-6 cm/s; pEC50 (Plasmodium falciparum [17]): 8.06; clearance at 24 h [35]: 7.7 mL/min/kg; bioavailability [36]: 61%; Vd at 24 h [37]: 1.4 L/kg; pEC50 (Plasmodium falciparum [28]): 8.03; Tmax [38]: 4.3 h; AUC(0-inf) [39]: 160 µM·h; half-life [40]: 4.1 h
3 | Cc1c(Cc2ccc(C(F)(F)F)nc2)c[nH]c1C(=O)NC(C)c1cnn(C)c1 (stereo in doubt; form 1) | Not Active | Not Active | 49.5 | 75 | 93.6 | Not Active | 113 (≈ 289 µM) | 36 | > 20000 | 95.1 | 217 | 1 | 44.8 | 60 (≈ 153 µM) | 83 | 3.5 | 8.41 | 41 | Non-Toxic | Non-Toxic | pEC50 (Plasmodium falciparum [41]): 8.23; pEC50 (Plasmodium falciparum [42]): < 5.00; Tmax [43]: 3.5 h; bioavailability [44]: 61%; AUC(0-inf) [45]: 360 µM·h; pEC50 (Plasmodium falciparum [46]): 8.01; Cmax [47]: 35 µM; pEC50 (Plasmodium falciparum [48]): 8.21; TDI (Cytochrome P450 3A4): Not Active; half-life [49]: 3.7 h; pIC50 [21]: 7.34; clearance at 24 h ([23]; dose 2.8 mg/kg): 2.4 mL/min/kg; solubility [27]: 158 µg/mL (≈ 404 µM); Vd at 24 h ([30]; dose 2.8 mg/kg): 0.87 L/kg; pEC50 (Plasmodium falciparum [50]): < 5.00
